Measurements as given in patent US20230200390A1, “SELECTIVE HERBICIDES BASED ON SUBSTITUTED ISOXAZOLIN CARBOXAMIDES AND MEFENPYR-DIETHYL” (BAYER AKTIENGESELLSCHAFT, priority 2020, published 2023).

Tests used:
Format in all cases: in vivo
[1] = tested on: spring barley, HORVS Montoya; assay: Tank-mix; post-emergence: crop damage by herbicide with/without safener mefenpyr-diethyl; conditions: for HER effect + SAF / Reduction [%] / Reduction [Difference]: HER 48 g a.i./ha + mefenpyr-diethyl 100 g a.i./ha; for HER effect: herbicide alone 48 g a.i./ha
Summary of the method: (§1)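 Visual percent crop damage (0–100 relative to untreated plants) assessed 1–3 weeks post-application. Plants in sandy loam were sprayed at the 1–3-leaf stage with herbicide with or without safener at several rates, water volume 300 l/ha.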

[2] = tested on: spring wheat, TRZAS Triso; assay: as above; conditions: 21 DAT
Summary of the method: as §1

[3] = tested on: spring barley, HORVS Montoya; assay: Treatment 1 day before: safener applied one day before herbicide, crop damage; conditions: for HER effect + SAF / Reduction [%] / Reduction [Difference]: mefenpyr-diethyl 50 g a.i./ha 1 day before
Source text: (§2) Seeds of crops (spring wheat, TRZAS; spring barley, HORVS; maize, ZEAMA) were placed in sandy loam soil in pots of a diameter of 7-8 cm, covered with soil, and cultivated in a greenhouse under good growth conditions until plants were at the 1-3 leaf stage (BBCH 11-13). For split safener and herbicide treatment, first the safener was applied followed by the herbicide treatment on the following day. The safener and herbicides were formulated as WP and sprayed onto the green parts of the plants as an aqueous suspension at an equivalent water application rate of 300 l/ha, with addition of wetting agent and adjuvants (e.g. Mero, 1.5 l/ha; ammonium sulphate, 2 kg/ha). An equivalent set of plants was treated with the herbicides but without the prior safener treatment.
(§3) After application, the test plants were kept in the greenhouse under good growth conditions. 10 and 21 days after treatment (DAT) with the herbicide, % crop damage observed on the treated plants was scored visually in comparison to control plants that had not received any safener or herbicide treatment.

[4] = tested on: spring wheat, TRZAS Triso; assay: as above; conditions: 21 DAT; for HER effect + SAF / Reduction [%] / Reduction [Difference]: mefenpyr-diethyl 50 g a.i./ha 1 day before
Source text: as §2, §3

[5] = tested on: spring barley, HORVS Montoya; assay: Seed treatment with safener; post-emergence herbicide, crop damage; conditions: 21 DAT; for HER effect + SAF / Reduction [%] / Reduction [Difference]: mefenpyr-diethyl 0.5 g a.i./kg seed
Summary of the method: (§4)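 Crop injury was rated visually in % at 10 and 21 days after post-emergence spraying at the 2-leaf stage. The herbicide was a WP in 300 l/ha water plus 1 l/ha MERO. Plants grew from seed either safener-coated at stated g a.i./kg rates via a milk-diluted slurry, or untreated.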

[6] = tested on: spring wheat, TRZAS Triso; assay: as above; conditions: 21 DAT; for HER effect + SAF [%] (crop damage) / Reduction [%] / Reduction [Difference]: mefenpyr-diethyl 0.5 g a.i./kg seed; for HER effect [%] (crop damage, herbicide without safener): no safener
Summary of the method: as §4

[7] = HER 4 g a.i./ha + mefenpyr-diethyl 50 g a.i./ha
[8] = HER 16 g a.i./ha + mefenpyr-diethyl 100 g a.i./ha
[9] = HER 48 g a.i./ha post-emergence
[10] = herbicide alone 48 g a.i./ha post-emergence
[11] = HER 12 g a.i./ha post-emergence

CC1(C(=O)NC2C=CC(C(=O)OCCCl)C2)CC(c2cc(F)cc(F)c2)=NO1 (mixture of isomers) [Example 1.47]
HER effect + SAF ([1]; 21 DAT): 60%
Reduction [%] ([1]; 21 DAT): 29%
Reduction [Difference] ([1]; 21 DAT): 25
HER effect ([1]; 21 DAT): 85%
HER effect + SAF [2, 7]: 10%
Reduction [%] [2, 7]: 67%
Reduction [Difference] [2, 7]: 20
HER effect + SAF [2, 8]: 20%
Reduction [%] [2, 8]: 75%
Reduction [Difference] [2, 8]: 60
HER effect ([2]; herbicide alone 4 g a.i./ha): 30%
HER effect ([2]; herbicide alone 16 g a.i./ha): 80%
HER effect + SAF ([3]; HER 25 g a.i./ha, 21 DAT): 40%
Reduction [%] ([3]; HER 25 g a.i./ha, 21 DAT): 33%
Reduction [Difference] ([3]; HER 25 g a.i./ha, 21 DAT): 20
HER effect ([3]; herbicide alone 25 g a.i./ha, 21 DAT): 60%
HER effect + SAF ([4]; HER 25 g a.i./ha): 35%
Reduction [%] ([4]; HER 25 g a.i./ha): 53%
Reduction [Difference] ([4]; HER 25 g a.i./ha): 40
HER effect + SAF ([4]; HER 50 g a.i./ha): 60%
Reduction [%] ([4]; HER 50 g a.i./ha): 25%
Reduction [Difference] ([4]; HER 50 g a.i./ha): 20
HER effect ([4]; herbicide alone 25 g a.i./ha): 75%
HER effect ([4]; herbicide alone 50 g a.i./ha): 80%
HER effect + SAF [5, 9]: 20%
Reduction [%] [5, 9]: 76%
Reduction [Difference] [5, 9]: 65
HER effect [5, 10]: 85%
HER effect + SAF [%] (crop damage) ([6]; HER dose 4 g a.i./ha): 0%
Reduction [%] ([6]; HER dose 4 g a.i./ha): 100%
Reduction [Difference] ([6]; HER dose 4 g a.i./ha): 30
HER effect [%] (crop damage, herbicide without safener) ([6]; HER dose 4 g a.i./ha): 30%
HER effect + SAF [%] (crop damage) ([6]; HER dose 16 g a.i./ha): 10%
Reduction [%] ([6]; HER dose 16 g a.i./ha): 88%
Reduction [Difference] ([6]; HER dose 16 g a.i./ha): 70
HER effect [%] (crop damage, herbicide without safener) ([6]; HER dose 16 g a.i./ha): 80%

CCOC(=O)C1C=CC(NC(=O)C2(C(F)(F)F)CC(c3cc(OC)cc(OC)c3)=NO2)C1 (mixture of isomers) [Example 1.12]
HER effect + SAF ([1]; 10 DAT): 0%
Reduction [%] ([1]; 10 DAT): 100%
Reduction [Difference] ([1]; 10 DAT): 60
HER effect ([1]; 10 DAT): 60%
HER effect + SAF ([3]; HER 50 g a.i./ha, 10 DAT): 20%
Reduction [%] ([3]; HER 50 g a.i./ha, 10 DAT): 64%
Reduction [Difference] ([3]; HER 50 g a.i./ha, 10 DAT): 35
HER effect + SAF ([3]; HER 100 g a.i./ha, 21 DAT): 50%
Reduction [%] ([3]; HER 100 g a.i./ha, 21 DAT): 29%
Reduction [Difference] ([3]; HER 100 g a.i./ha, 21 DAT): 20
HER effect ([3]; herbicide alone 50 g a.i./ha, 10 DAT): 55%
HER effect ([3]; herbicide alone 100 g a.i./ha, 21 DAT): 70%
HER effect + SAF ([4]; HER 200 g a.i./ha): 20%
Reduction [%] ([4]; HER 200 g a.i./ha): 50%
Reduction [Difference] ([4]; HER 200 g a.i./ha): 20
HER effect ([4]; herbicide alone 200 g a.i./ha): 40%
HER effect + SAF [5, 11]: 0%
Reduction [%] [5, 11]: 100%
Reduction [Difference] [5, 11]: 20
HER effect + SAF [5, 9]: 20%
Reduction [%] [5, 9]: 60%
Reduction [Difference] [5, 9]: 30
HER effect ([5]; herbicide alone 12 g a.i./ha post-emergence): 20%
HER effect [5, 10]: 50%
